According to ChEMBL document CHEMBL1141016, “Orally bioavailable prodrugs of a BCS class 2 molecule, an inhibitor of HIV-1 reverse transcriptase” (Bioorg Med Chem Lett, 2008):
Values after ≈ are worked out from the molar mass of the structure shown.

Tests used:
[1] = Aqueous stability assessed as half life at pH 2; assay type: physicochemical
[2] = Aqueous stability assessed as half life at pH 6.5; assay type: physicochemical
Rattus norvegicus [3] = test: Tmax in Hanover Wistar rat assessed as 5-(6-chloro-2-fluoro-3-((5-methyl-6-oxo-1,6-dihydropyridazin-3-yl)methyl)phenoxy)isophthalonitrile level at 50 mg/kg, po; assay type: ADME, organism-based; design: dose 50 mg/kg, route oral; conditions: in vivo
Rattus norvegicus [4] = test: Cmax in Hanover Wistar rat assessed as 5-(6-chloro-2-fluoro-3-((5-methyl-6-oxo-1,6-dihydropyridazin-3-yl)methyl)phenoxy)isophthalonitrile level at 50 mg/kg, po; assay type: ADME, organism-based; design: dose 50 mg/kg, route oral; conditions: in vivo
Rattus norvegicus [5] = test: AUC (0 to 24 hrs) in Hanover Wistar rat assessed as 5-(6-chloro-2-fluoro-3-((5-methyl-6-oxo-1,6-dihydropyridazin-3-yl)methyl)phenoxy)isophthalonitrile level at 50 mg/kg, po; design: unit not given here; conditions: in vivo
[6] = Permeability across human Caco-2 cells; assay type: ADME, cell-based; conditions: read-out: permeability
[7] = Aqueous solubility at pH 6.5; assay type: physicochemical
[8] = Dissociation constant, pKa of the compound; assay type: physicochemical
[9] = Tmax in Hanover Wistar rat at 5 mg/kg, po; assay type: ADME, organism-based; design: dose 5 mg/kg, route oral; conditions: in vivo
[10] = Cmax in Hanover Wistar rat at 5 mg/kg, po; assay type: ADME, organism-based; design: dose 5 mg/kg, route oral; conditions: in vivo
[11] = Tmax in Hanover Wistar rat at 50 mg/kg, po; assay type: ADME, organism-based; design: dose 50 mg/kg, route oral; conditions: in vivo
[12] = Cmax in Hanover Wistar rat at 50 mg/kg, po; assay type: ADME, organism-based; design: dose 50 mg/kg, route oral; conditions: in vivo
Rattus norvegicus [13] = test: AUC (0 to 24 hrs) in Hanover Wistar rat at 5 mg/kg, po; conditions: in vivo
Rattus norvegicus [14] = test: AUC (0 to 24 hrs) in Hanover Wistar rat at 50 mg/kg, po; conditions: in vivo

SMILES	half-life [1]	half-life [2]	Tmax (Rattus norvegicus [3])	Cmax (Rattus norvegicus [4])	AUC (Rattus norvegicus [5])	Papp [6]	solubility [7]	pKa [8]	Tmax [9]	Cmax [10]	Tmax [11]	Cmax [12]	AUC (Rattus norvegicus [13])	AUC (Rattus norvegicus [14])
Cc1cc(Cc2ccc(Cl)c(Oc3cc(C#N)cc(C#N)c3)c2F)nn(COC(=O)OCCN2CCOCC2)c1=O.Cl	301 h	3.5 h	3.3 h	5.6 µM	89	–	–	–	–	–	–	–	–	–
Cc1cc(Cc2ccc(Cl)c(Oc3cc(C#N)cc(C#N)c3)c2F)nn(COC(=O)c2cccnc2)c1=O.Cl	10 h	4.7 h	4.7 h	8.8 µM	101	–	–	–	–	–	–	–	–	–
Cc1cc(Cc2ccc(Cl)c(Oc3cc(C#N)cc(C#N)c3)c2F)nn(COP(=O)([O-])[O-])c1=O.[Na+].[Na+]	> 24 h	> 24 h	8 h	12.7 µM	178	–	–	–	–	–	–	–	–	–
Cc1cc(Cc2ccc(Cl)c(Oc3cc(C#N)cc(C#N)c3)c2F)n[nH]c1=O	–	–	–	–	–	19 ×10⁻⁶ cm/s	0.3 µg/mL (≈ 0.76 µM)	10.5	3.7 h	0.96 µM	3.3 h	1.5 µM	6.8 uM.hr/ml	20.3 uM.hr/ml
Cc1cc(Cc2ccc(Cl)c(Oc3cc(C#N)cc(C#N)c3)c2F)nn(COC(=O)[C@@H]2CCCN2)c1=O.Cl	17 h	< 0.3 h	4.7 h	7.3 µM	108	–	–	–	–	–	–	–	–	–

Continued, values first:

half-life [1]	half-life [2]	Tmax (Rattus norvegicus [3])	Cmax (Rattus norvegicus [4])	AUC (Rattus norvegicus [5])	Papp [6]	solubility [7]	pKa [8]	Tmax [9]	Cmax [10]	Tmax [11]	Cmax [12]	AUC (Rattus norvegicus [13])	AUC (Rattus norvegicus [14])	SMILES
289 h	0.9 h	2 h	7.3 µM	108	–	–	–	–	–	–	–	–	–	Cc1cc(Cc2ccc(Cl)c(Oc3cc(C#N)cc(C#N)c3)c2F)nn(COC(=O)OCCN(C)C)c1=O.Cl
462 h	40 h	2.7 h	13.2 µM	142	–	–	–	–	–	–	–	–	–	Cc1cc(Cc2ccc(Cl)c(Oc3cc(C#N)cc(C#N)c3)c2F)nn(COC(=O)CCC(=O)O)c1=O
38 h	1 h	4 h	6.3 µM	93	–	–	–	–	–	–	–	–	–	Cc1cc(Cc2ccc(Cl)c(Oc3cc(C#N)cc(C#N)c3)c2F)nn(COC(=O)CN)c1=O.Cl
1420 h	3.2 h	4 h	9.1 µM	134	–	–	–	–	–	–	–	–	–	Cc1cc(Cc2ccc(Cl)c(Oc3cc(C#N)cc(C#N)c3)c2F)nn(COC(=O)[C@@H](N)C(C)C)c1=O.Cl
